System: Male C57BL mice with loperamide-induced constipation
Test: Mouse model of loperamide-induced constipation
Assay type: in vivo
Details: Product 1 30 mg/kg oral gavage, 30 min after loperamide 10 mg/kg, final study day, compared to Loperamide/Vehicle
Method: Mouse Model of Loperamide-Induced Constipation
Male C57BL mice (6 to 8 weeks, 25-30 grams) were placed on high-fat diet (45% fat) and allowed to acclimate (singly housed on a 12 hr light/dark cycle) for 6 days. Loperamide was administered by oral gavage at 10 mg/kg (10% DMSO/90% of 20% SBE-β-CD in saline) for 3 consecutive days prior to study initiation.
Daily loperamide dosing was continued throughout the entire study. On the 4, day of loperamide administration, Product 1 (30 mg/kg in 10% DMSO/90% of 20% SBE-β-CD in saline) was administered 30 minutes later by oral gavage. Sequential treatment of loperamide and Product 1 (30 minutes post-loperamide dose) was continued for 2 additional days. On the final day of the study, a fourth group of animals received a single subcutaneous administration of naloxone (1 mg/kg) as a positive control.
On the final study day, the number of fecal pellets and pellet weights for each animal were recorded hourly for the 6 hours following dosing. Fecal pellet output was then recorded every other hour for the period of 6-12 hours post-dosing. Additionally, total fecal pellet count for the period of 12 to 24 hours was measured. Fecal pellets were dried for 24 hours and dry weight recorded.
Prism software (GraphPad Prism, San Diego, CA) was employed for graphs and curve fitting. Data was analyzed using a two-way ANOVA with post-hoc LSD test.

O=C(O)CC1CCC(c2ccc(-c3ccc(Nc4ccc(C(F)(F)F)nc4)cn3)cc2)CC1 (stereo not drawn) [Product 1]
significant increase: wet weights of fecal pellets (FPWW) (1-4 hours after administration, FIG. 2) | dry weights of fecal pellets (FPDW) (1-4 hours after administration, FIG. 3) | fecal pellet output (FPCO) (first 1-4 hours after administration, FIG. 1)
